From patent US20240246954A1, “COMPOSITIONS AND METHODS FOR INHIBITING KRAS” (TheRas, Inc., priority 2021, published 2024)

Tests used:
[1] = target: T1, Avi-KRAS G12D/Q25A (1-169) GppNHp/3×FLAG-PI3KCA (157-299) (Homo sapiens, UniProt P01116, G12D/Q25A); assay: HTRF PI3KCA-KRAS G12D/Q25A-GppNHp disruption assay; assay type: biochemical; details: 1 h incubation
T1 construct: Avi-KRAS G12D/Q25A (1-169) GppNHp
Experimental: (§1) The HTRF assay employed the following protocol:
(§2) Compounds were dispensed in assay plate (384-well, Grenier Bione #784075) using Echo (model 555) with dose response settings: 200 nL final volume, titration from 100 μM as a 10-point dilution series. Protein mix was prepared in assay buffer, and dispensed on plates, 10 μL per well, then incubated for 1 h at room temperature, with 700 rpm shaking. Reagents mix was prepared and dispensed on plates, 10 μL per well, then incubated for 1 h at room temperature, with 700 rpm shaking.
(§3) Plates were analyzed on an Envision plate reader using the following setting: Excitation 320 nm, Bandwidth […]; Emission 615 nm, Bandwidth […], Gain 100%, Flashes 100, Lag 60 μs. Data was reported as percentage of activity, with DMSO as 100%. Data was plotted and analyzed using Prism 8.

[2] = target: T2, Avi-KRAS G12D (1-169) GppNHp/RAF1 RBD-3×FLAG (52-151) (Homo sapiens, UniProt P01116, G12D); assay: HTRF Raf1-KRAS G12D-GppNHp disruption assay; assay type: biochemical; details: 1 h incubation
T2 construct: Avi-KRAS G12D (1-169) GppNHp
T2 sequence (P01116 1-169 isoform P01116-2 G12D limits assumed): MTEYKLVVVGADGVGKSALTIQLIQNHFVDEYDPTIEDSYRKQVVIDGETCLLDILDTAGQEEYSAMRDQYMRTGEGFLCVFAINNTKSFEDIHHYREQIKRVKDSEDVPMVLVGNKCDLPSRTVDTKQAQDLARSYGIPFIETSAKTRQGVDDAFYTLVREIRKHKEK
Experimental: as §1, §2, §3

T1 sequence (P01116 1-169 isoform P01116-2 G12D/Q25A limits assumed): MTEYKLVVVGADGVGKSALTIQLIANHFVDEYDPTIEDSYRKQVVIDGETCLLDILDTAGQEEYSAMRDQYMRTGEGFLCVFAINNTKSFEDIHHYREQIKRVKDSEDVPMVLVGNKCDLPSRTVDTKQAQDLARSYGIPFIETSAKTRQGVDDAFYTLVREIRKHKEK

Compound | IC50 [1] | IC50 [2]
CN(c1nc(OCC23CCCN2CCC3)nc2c(F)c(-c3ccc(F)c4sc(N)nc34)c(Cl)cc12)C1CN(C(=O)CN)C1 [Compound 164] | 10 to 30 µM | 10 to 30 µM
Nc1nc2c(-c3c(C(F)(F)F)cc4c(N5CCNCC5)nc(OCC56CCCN5CC(F)(F)C6)nc4c3F)ccc(F)c2s1 (stereo not drawn) [Compound 211] | 10 to 30 µM | 1 to 10 µM
NC(=O)N1CCN(c2nc(OCC34CCCN3CCC4)nc3c(F)c(-c4ccc(F)c5sc(N)nc45)c(C(F)(F)F)cc23)CC1 [Compound 165, 4-(7-(2-amino-7-fluorobenzo[d]thiazol-4-yl)-8-fluoro-2-((tetrahydro-1H-pyrrolizin-7a(5H)-yl)methoxy)-6-(trifluoromethyl)quinazolin-4-yl)piperazine-1-carboxamide] | 10 to 30 µM | 10 to 30 µM
Nc1nc2c(-c3c(C(F)(F)F)cc4c(N5CCNCC5)nc(OCC56CCCN5CCC6)nc4c3F)ccc(F)c2s1 [Compound 123] | 1 to 10 µM | 1 to 10 µM
NCC(=O)N1C2CCC1CN(c1nc(OC[C@@]34CCCN3C[C@H](F)C4)nc3c(F)c(-c4ccc(F)c5sc(N)nc45)c(C(F)(F)F)cc13)C2 [Compound 272] | 1 to 10 µM | 0.1 to 1 µM
Nc1nc2c(-c3c(Cl)cc4c(N5CCNCC5)nc(OCC56CCCN5CCC6)nc4c3F)ccc(F)c2s1 [Compound 82] | 1 to 10 µM | 1 to 10 µM
CN(c1nc(OCC23CCCN2CCC3)nc2c(F)c(-c3ccc(F)c4sc(N)nc34)c(C(F)(F)F)cc12)C1CCNCC1 [Compound 280] | 1 to 10 µM | 1 to 10 µM
C[C@@H]1CN(c2nc(OC[C@@]34CCCN3C[C@@H](F)C4)nc3c(F)c(-c4ccc(F)c5sc(N)nc45)c(C(F)(F)F)cc23)C[C@H](C)N1 [Compound 229] | 10 to 30 µM | 10 to 30 µM
Nc1nc2c(-c3c(OC(F)(F)F)cc4c(N5CC6CCC(C5)N6)nc(OCC56CCCN5CCC6)nc4c3F)ccc(F)c2s1 [Compound 231] | 1 to 10 µM | 1 to 10 µM
C[C@@H]1CNCCN1c1nc(OC[C@]23CCCN2C[C@H](F)C3)nc2c(F)c(-c3ccc(F)c4sc(N)nc34)c(C(F)(F)F)cc12 [Compound 209] | 1 to 10 µM | 0.1 to 1 µM
C[C@@H]1CNC[C@@H]1N(C)c1nc(OC[C@@]23CCCN2C[C@H](F)C3)nc2c(F)c(-c3ccc(F)c4sc(N)nc34)c(C(F)(F)F)cc12 [Compound 292] | 1 to 10 µM | 1 to 10 µM
CN1CCC[C@H]1COc1nc(NCCN)c2cc(Cl)c(-c3cccc4nc(N)n(C)c34)c(F)c2n1 [Compound 86] | 10 to 30 µM | 10 to 30 µM
CN(c1nc(OCC23CCCN2CCC3)nc2c(F)c(-c3ccc(F)c4sc(N)nc34)c(C(F)(F)F)cc12)[C@H]1C[C@H]2CC[C@@H]1N2 (atropisomer, axis not shown) [Compound 271] | 1 to 10 µM | 0.1 to 1 µM
CC1(Nc2nc(OCC34CCCN3CCC4)nc3c(F)c(-c4ccc(F)c5sc(N)nc45)c(Cl)cc23)CNC1 [Compound 190] | 1 to 10 µM | 1 to 10 µM
CN(c1nc(OCC23CCCN2CCC3)nc2c(F)c(-c3ccc(F)c4sc(N)nc34)c(-c3ccoc3)cc12)C1CN(C(N)=O)C1 [Compound 151] | 10 to 30 µM | 1 to 10 µM
N#Cc1cc2c(N3CCNCC3)ncnc2c(F)c1-c1ccc(F)c2sc(N)nc12 [Compound 94, 7-(2-amino-7-fluorobenzo[d]thiazol-4-yl)-8-fluoro-4-(piperazin-1-yl)quinazoline-6-carbonitrile] | 10 to 30 µM | 10 to 30 µM
CN1CCC(c2nc(NCCN)c3cc(Cl)c(-c4ccc(F)c5sc(N)nc45)c(F)c3n2)CC1 [Compound 103] | 10 to 30 µM | 10 to 30 µM
COc1c(Cl)c(-c2ccc(F)c3sc(N)nc23)c(F)c2ncnc(N3CCNCC3)c12 [Compound 125, 4-(6-chloro-8-fluoro-5-methoxy-4-(piperazin-1-yl)quinazolin-7-yl)-7-fluorobenzo[d]thiazol-2-amine] | 10 to 30 µM | 10 to 30 µM
C[C@@H]1CN(c2nc(OC[C@@]34CCCN3C[C@@H](F)C4)nc3c(F)c(-c4ccc(F)c5sc(N)nc45)c(C(F)(F)F)cc23)CCN1 [Compound 225] | 10 to 30 µM | 1 to 10 µM
CN(c1nc(OC[C@@]23CCCN2C[C@H](F)C3)nc2cc(-c3ccc(F)c4sc(N)nc34)c(C(F)(F)F)cc12)[C@H]1CNC[C@@H]1F [Compound 362] | 10 to 30 µM | 10 to 30 µM
CN1CC(C)(C)C[C@H]1COc1nc(N2CC3CCC(C2)N3)c2cc(C(F)(F)F)c(-c3ccc(F)c4sc(N)nc34)c(F)c2n1 [Compound 253] | 1 to 10 µM | 1 to 10 µM
NCC(=O)N1CCN(c2nc(OC[C@]34CCCN3C[C@H](F)C4)nc3c(F)c(-c4ccc(F)c5sc(N)nc45)c(C(F)(F)F)cc23)CC1 [Compound 181] | 1 to 10 µM | 1 to 10 µM
C[C@@H]1CN(c2nc(OC[C@]34CCCN3C[C@H](F)C4)nc3c(F)c(-c4ccc(F)c5sc(N)nc45)c(C(F)(F)F)cc23)C[C@H](C)N1 [Compound 215] | 10 to 30 µM | 1 to 10 µM
CN1CCC[C@H]1COc1nc(N2CCNCC2)c2cc(-c3ccccc3)c(-c3ccc(F)c4sc(N)nc34)c(F)c2n1 [Compound 145] | 10 to 30 µM | 10 to 30 µM
CN(c1nc(OC[C@@H]2CC(F)(F)CN2C)nc2c(F)c(-c3ccc(F)c4sc(N)nc34)c(C(F)(F)F)cc12)C1CNC1 [Compound 204] | 10 to 30 µM | 10 to 30 µM
CN1CCC(c2nc(N3CCNCC3)c3cc(Cl)c(-c4ccc(F)c5sc(N)nc45)c(F)c3n2)CC1 [Compound 101] | 10 to 30 µM | 10 to 30 µM
CN1CCC[C@H]1COc1nc(N2CCN(C(=O)CN)CC2)c2cc(-c3ccoc3)c(-c3ccc(F)c4sc(N)nc34)c(F)c2n1 [Compound 144, 2-amino-1-(4-(7-(2-amino-7-fluorobenzo[d]thiazol-4-yl)-8-fluoro-6-(furan-3-yl)-2-(((S)-1-methylpyrrolidin-2-yl)methoxy)quinazolin-4-yl)piperazin-1-yl)ethan-1-one] | 10 to 30 µM | 10 to 30 µM
Nc1nc2c(-c3c(C(F)(F)F)cc4c(NC5CC6CC[C@@H](C5)N6)nc(OCC56CCCN5CCC6)nc4c3F)ccc(F)c2s1 (stereo partly drawn) [Compound 263] | 1 to 10 µM | 1 to 10 µM

Other lines, results leading:

IC50 [1] | IC50 [2] | Compound
10 to 30 µM | 10 to 30 µM | CN1CCC[C@H]1COc1nc(N2CC3(CCN3)C2)c2cc(Cl)c(-c3ccc(F)c4sc(N)nc34)c(F)c2n1 [Compound 96]
1 to 10 µM | 1 to 10 µM | CN1CCC[C@H]1COc1nc(NC2CCNC2)c2cc(Cl)c(-c3ccc(F)c4sc(N)nc34)c(F)c2n1 (stereo partly drawn) [Compound 98]
10 to 30 µM | 10 to 30 µM | CCN(c1nc(OC[C@@H]2CCCN2C)nc2c(F)c(-c3ccc(F)c4sc(N)nc34)c(Cl)cc12)C1CN(C(=O)CN)C1 [Compound 197]
10 to 30 µM | 10 to 30 µM | CNc1nc2c(-c3c(Cl)cc4c(NCCN)nc(OC[C@@H]5CCCN5C)nc4c3F)ccc(F)c2s1 [Compound 87]
10 to 30 µM | 10 to 30 µM | CN1CCC[C@H]1COc1nc(N2CCN(C(=O)CN)CC2)c2cc(Cl)c(-c3ccc(F)c4sc(N)nc34)c(F)c2n1 [Compound 108]
10 to 30 µM | 10 to 30 µM | CO[C@@H]1CN(C)C[C@H]1Oc1nc(NC2CNC2)c2cc(Cl)c(-c3ccc(F)c4sc(N)nc34)c(F)c2n1 [Compound 68]
1 to 10 µM | 1 to 10 µM | CN1CCC[C@H]1COc1nc(N[C@H]2C[C@H](N)C2)c2cc(Cl)c(-c3ccc(F)c4sc(N)nc34)c(F)c2n1 (atropisomer, axis not shown) [Compound 83]
10 to 30 µM | 10 to 30 µM | C[C@H]1CN(c2nc(OC[C@@H]3CCCN3C)nc3c(F)c(-c4ccc(F)c5sc(N)nc45)c(Cl)cc23)CCN1 [Compound 84]
10 to 30 µM | 10 to 30 µM | CC(=O)N1CC(Nc2nc(OC[C@@H]3CCCN3C)nc3c(F)c(-c4ccc(F)c5sc(N)nc45)c(Cl)cc23)C1 [Compound 67]
10 to 30 µM | 10 to 30 µM | CN1CCC1COc1nc(NC2CNC2)c2cc(Cl)c(-c3ccc(F)c4sc(N)nc34)c(F)c2n1 (stereo not drawn) [Compound 105]
10 to 30 µM | 1 to 10 µM | CN1CCC[C@H]1COc1nc(NC2CCCNC2)c2cc(Cl)c(-c3ccc(F)c4sc(N)nc34)c(F)c2n1 (stereo partly drawn) [Compound 99]
10 to 30 µM | 1 to 10 µM | CO[C@@H]1C[C@@H](COc2nc(NC3CNC3)c3cc(Cl)c(-c4ccc(F)c5sc(N)nc45)c(F)c3n2)N(C)C1 [Compound 73]
10 to 30 µM | 10 to 30 µM | Cc1cc2c(N3CCNCC3)nc(OC[C@@H]3CCCN3C)nc2c(F)c1-c1ccc(F)c2sc(N)nc12 [Compound 205]
10 to 30 µM | 10 to 30 µM | CN1CCC[C@H]1COc1nc(N2CC3CNCC3C2)c2cc(Cl)c(-c3ccc(F)c4sc(N)nc34)c(F)c2n1 (stereo partly drawn) [Compound 71]
10 to 30 µM | 10 to 30 µM | CC(=O)NCCNc1nc(OC[C@@H]2CCCN2C)nc2c(F)c(-c3ccc(F)c4sc(N)nc34)c(Cl)cc12 [Compound 76]
10 to 30 µM | 10 to 30 µM | CN1CCC(c2nc(NC3CNC3)c3cc(Cl)c(-c4ccc(F)c5sc(N)nc45)c(F)c3n2)CC1 [Compound 102]
10 to 30 µM | 10 to 30 µM | C[C@H]1CNCCN1c1nc(OC[C@@H]2CCCN2C)nc2c(F)c(-c3ccc(F)c4sc(N)nc34)c(Cl)cc12 [Compound 78]
